Reference: PMC8037182, “Solvothermal Synthesis of Multiple Dihydropyrimidinones at a Time as Inhibitors of Eg5” (Molecules, 2021)

What was measured:
T24 cell line = assay: Cytotoxicity MTS assay, T24 cell line; format: cell-based; settings: for OD490 Mean / OD490 Well 1 / OD490 Well 2 / OD490 Well 3: T24 cell line, first assay;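 for OD490 Mean: blank control wells received 0.025% DMSO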;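 for OD490 Well 1: blank control wells received 0.025% DMSO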;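 for OD490 Well 2: blank control wells received 0.025% DMSO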;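 for OD490 Well 3: blank control wells received 0.025% DMSO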
Procedure, shortened: (§1)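 Cells seeded at 1000 per well, grown 24 h, then exposed to compound (0.5–100 µM final) for 24 h with 0.025% DMSO blank. MTS reagent added for 2 h at 37 °C, absorbance read at 490 nm; IC50 from non-linear regression of % viability versus concentration, three independent duplicate experiments.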

Caco-2 cell line = assay: Cytotoxicity MTS assay, Caco-2 cell line; format: cell-based; settings: for OD490 Mean / OD490 Well 1 / OD490 Well 2 / OD490 Well 3: Caco-2 cell line
Procedure, shortened: as §1

## CCOC(=O)c1[nH]c(C2NC(=S)NC(C)=C2C(=O)OC)c(C(=O)OCC)c1C (centres unmarked) [D12]
T24 cell line; MTS assay, 24 h exposure
  IC50: > 150 µM
T24 cell line; 0.5μM
  OD490 Mean: 1.1142
  OD490 Well 1: 1.0855
  OD490 Well 2: 0.8354
  OD490 Well 3: 1.4216
T24 cell line; 1μM
  OD490 Mean: 1.1490
  OD490 Well 1: 1.1324
  OD490 Well 2: 1.1847
  OD490 Well 3: 1.1298
T24 cell line; 10μM
  OD490 Mean: 1.2900
  OD490 Well 1: 1.3295
  OD490 Well 2: 1.2196
  OD490 Well 3: 1.3210
T24 cell line; 25μM
  OD490 Mean: 1.3787
  OD490 Well 1: 1.3758
  OD490 Well 2: 1.4030
  OD490 Well 3: 1.3572
T24 cell line; 50μM
  OD490 Mean: 1.3058
  OD490 Well 1: 1.3832
  OD490 Well 2: 1.3204
  OD490 Well 3: 1.2137
T24 cell line; 100μM
  OD490 Mean: 1.2394
  OD490 Well 1: 1.3664
  OD490 Well 2: 1.1849
  OD490 Well 3: 1.1670
Caco-2 cell line; 0.5μM, first assay
  OD490 Mean: 0.5030
  OD490 Well 1: 0.4995
  OD490 Well 2: 0.5121
  OD490 Well 3: 0.4973
Caco-2 cell line; 0.5μM, second assay
  OD490 Mean: 0.6834
  OD490 Well 1: 0.5732
  OD490 Well 2: 0.7838
  OD490 Well 3: 0.6933
Caco-2 cell line; 0.5μM, third assay
  OD490 Mean: 0.6157
  OD490 Well 1: 0.6017
  OD490 Well 2: 0.6354
  OD490 Well 3: 0.6100
Caco-2 cell line; 1μM, first assay
  OD490 Mean: 0.4963
  OD490 Well 1: 0.4703
  OD490 Well 2: 0.5352
  OD490 Well 3: 0.4835
Caco-2 cell line; 1μM, second assay
  OD490 Mean: 0.6457
  OD490 Well 1: 0.5559
  OD490 Well 2: 0.7221
  OD490 Well 3: 0.6591
Caco-2 cell line; 1μM, third assay
  OD490 Mean: 0.6229
  OD490 Well 1: 0.6178
  OD490 Well 2: 0.6489
  OD490 Well 3: 0.6021
Caco-2 cell line; 10μM, first assay
  OD490 Mean: 0.5326
  OD490 Well 1: 0.5238
  OD490 Well 2: 0.5488
  OD490 Well 3: 0.5251
Caco-2 cell line; 10μM, second assay
  OD490 Mean: 0.6099
  OD490 Well 1: 0.585
  OD490 Well 2: 0.6539
  OD490 Well 3: 0.5909
Caco-2 cell line; 10μM, third assay
  OD490 Mean: 0.6194
  OD490 Well 1: 0.6123
  OD490 Well 2: 0.6244
  OD490 Well 3: 0.6214
Caco-2 cell line; 25μM, first assay
  OD490 Mean: 0.5279
  OD490 Well 1: 0.5868
  OD490 Well 2: 0.5324
  OD490 Well 3: 0.4646
Caco-2 cell line; 25μM, second assay
  OD490 Mean: 0.5376
  OD490 Well 1: 0.5247
  OD490 Well 2: 0.5145
  OD490 Well 3: 0.5736
Caco-2 cell line; 25μM, third assay
  OD490 Mean: 0.5839
  OD490 Well 1: 0.5863
  OD490 Well 2: 0.5944
  OD490 Well 3: 0.5711
Caco-2 cell line; 50μM, first assay
  OD490 Mean: 0.5705
  OD490 Well 1: 0.5776
  OD490 Well 2: 0.5840
  OD490 Well 3: 0.5499
Caco-2 cell line; 50μM, second assay
  OD490 Mean: 0.6141
  OD490 Well 1: 0.6452
  OD490 Well 2: 0.6668
  OD490 Well 3: 0.5302
Caco-2 cell line; 50μM, third assay
  OD490 Mean: 0.5882
  OD490 Well 1: 0.5933
  OD490 Well 2: 0.5725
  OD490 Well 3: 0.5988
Caco-2 cell line; 100μM, first assay
  OD490 Mean: 0.4236
  OD490 Well 1: 0.4210
  OD490 Well 2: 0.4345
  OD490 Well 3: 0.4153
Caco-2 cell line; 100μM, second assay
  OD490 Mean: 0.5967
  OD490 Well 1: 0.5668
  OD490 Well 2: 0.6735
  OD490 Well 3: 0.5498
Caco-2 cell line; 100μM, third assay
  OD490 Mean: 0.4730
  OD490 Well 1: 0.4925
  OD490 Well 2: 0.4687
  OD490 Well 3: 0.4578
Caco-2 cell line; MTS assay, 24 h exposure
  IC50: 148 µM
